Eleven molecules from US10851109B2, “Compositions and methods of using the same for treatment of neurodegenerative and mitochondrial disease” (Mitokinin, Inc., priority 2014, dated 2020) can be followed below.

The subject of one data set is SH-SYSY cells. The data set is described as follows: Modulation of PINK1: Caspase-Glo caspase 3/7 cleavage after MG-132 in SH-SYSY cells. It counts as cell-based. To be noted: then 25 uM MG-132 for 16 hours, % of kinetin's caspase cleavage values; for Run1 Compound (avg as % kinetin): Run1, compound 96 hours; for Run2 Compound (avg as % kinetin): Run2, compound 96 hours; for Run3 Compound (avg as % kinetin): Run3, compound 96 hours. The method, then: We grew SH-SYSY cells in 1:1 mix of DMEM and F12 supplemented with 10% FBS and Pen/Strep (1×) antibiotics on 96 well plates (˜5,000 cells/well) at 37 degrees Celsius in 90 ul per well. We added 10 ul of 10× mix of the compounds identified below in a DMSO and medium mix to the cells. (min. 2 wells per compound per plate), allowed it to incubate for 96 hours at 37 degrees Celsius, then added 25 uM MG-132 for 16 hours (a proteasome inhibitor that triggers apoptosis; this toxicity is known to be opposed by PINK1). Following incubation with MG-132 we added 100 ul of Promega Caspase-Glo® reagent directly to each well to lyse cells and provide a luminescent Caspase 3/7 substrate peptide to quantify caspase cleavage activity. All of the values in Table 2 are presented as a % of kinetin's caspase cleavage values (kinentin was run as a positive control in parallel to the analogs of kinetin shown below).

A further data set relates to ND2 mutant flies. The data set is described as follows: Mechanical stress-induced (bang sensitive) paralysis test in ND2 mutant flies. It counts as in vivo, Drosophila. To be noted: ND2 mutant flies treated throughout life with 10 μM of drug; tested after aging 15 days. An excerpt:
Mutations affecting mitochondrial complex I, a multi-subunit assembly that couples electron transfer to proton pumping, are the most frequent cause of heritable mitochondrial diseases. Here, a Drosophila model of complex I deficiency caused by a homoplasmic mutation in the mitochondrial-encoded NADH dehydrogenase subunit 2 (ND2) gene is used. […] This ND2 mutant model was used in “bang sensitivity” behavioral analysis to show the effects of kinetin treatment.
All Drosophila strains were maintained on standard cornmeal/molasses medium at 25° C. with a 12-hour lightdark cycle. The ND2de11 and ND2ins1 stock was obtained from the laboratory of Dr. Patrick O'Farrell (University of California, San Francisco) (Xu et al., 2008). The isogenic w1118 stock was obtained from the Bloomington Drosophila Stock Center at Indiana University. […]
Drosophila strains with mutations affecting mitochondrial function often show an analogous seizure-like paralytic phenotype caused by mechanical-stress, termed “bang sensitivity” (Celotto et al., 2011; Fergestad et al., 2006; Ganetzky and Wu, 1982). […] Briefly, flies were vortexed for 10 seconds in inverted glass vials containing cotton stoppers, and the time required for each individual animal to right itself was recorded. […]
Unless otherwise stated statistical significance tests were calculated using an unpaired two-tailed Student's t-test.

For data set [1], the system named is mouse primary dopaminergic neuron culture. In words: Survival of TH positive dopaminergic neurons in primary mesencephalic culture injured by MPP+. It counts as cell-based. The note with it: for TH neuron survival against MPP+, % of cell survival / dopaminergic (TH positive) neuron survival, percentage of control / decrease of TH positive neurons: MPP+ 4 μM for 48 h. The text has this: Parkinson's disease (PD) is the second most common neurodegenerative disorder in the United States. The predominant motor symptoms of PD including slow movement, resting tremor, rigidity, and gait disturbance, are caused by the loss of dopaminergic neurons in the substantia nigra (SN). Although the aetiology of PD remains unknown, both genetic and environmental factors appear to play a role (Paisan-Ruiz et al., 2004; Vila & Przedborski, 2004). The neurotoxicant 1-methyl-4-phenyl-1, 2, 3, 6-tetrahydropyridine (MPTP) is a specific dopaminergic neuronal toxin. MPTP is converted to 1-methyl-4-phenyl pyridinium (MPP+) by astroglia and then causes specific dopaminergic neuronal death in the SN, thus leading to the clinical symptoms of PD in humans, primates and mice (Uhl et al., 1985). For this reason, MPTP-induced dopaminergic neurotoxicity in mice is widely used as a model for PD research. It has been largely reported that MPP+ causes neurodegeneration of dopaminergic neurones in vitro and provides a useful model of Parkinson's disease in vitro. […] This study investigated the neuroprotective effect of Mitokinin test compound (kinetin) in function on time of pre-incubation and concentration on mouse primary mesencephalic cultures injured by exposure to 1-methyl-4-phenylpyridinium (MPP+), a Parkinson' disease model in vitro. BDNF at 10 ng/ml will be used as a positive control in this study.
Mouse dopaminergic neurons are cultured as described by Schinelli et al., 1988 and Viswanath et al., 2001. Briefly pregnant female mouse of 14 days gestation are killed by cervical dislocation (Mouse C57Bl/6; Janvier Labs) and the foetuses are removed from the uterus. The embryonic midbrains are removed and placed in ice-cold medium of Leibovitz (L15; PanBiotech; ref: PO4-27055, batch: 4290114) containing 2% of Penicillin-Streptomycin (PS; PanBiotech; ref: P06-07100; batch: 4810114) and 1% of bovine serum albumin (BSA; PanBiotech; Ref: P06-1391100, batch: K030913). Only the ventral portions of the mesencephalic flexure are used for the cell preparations as this is the region of the developing brain rich in dopaminergic neurons. The midbrains are dissociated by trypsinisation for 20 min at 37° C. (Trypsin EDTA IX; PanBiotech Ref: P10-023100; batch: 1681013). The reaction is stopped by the addition of Dulbecco's modified Eagle's medium (DMEM; PanBiotech Ref PO4-03600; batch: 9710913) containing DNAase I grade II (0.1 mg/ml; Panbiotech, ref: P60-37780100; batch: H130919) and 10% of foetal calf serum (FCS; Invitrogen; ref: 10270-098; batch: 41Q4120K). Cells are then mechanically dissociated by 3 passages through a 10 ml pipette. Cells are then centrifuged at 180×g for 10 min at 4° C. temperature on a layer of BSA (3.5%) in L15 medium. The supernatant is discarded and the cells of pellet is re-suspended in a defined culture medium consisting of Neurobasal (Invitrogen, ref: 21103; batch: 1556347) supplemented with B27 (2%; Invitrogen; ref: 17504; batch: 1446691), L-glutamine (2 mM; PanBiotech; ref: PO4-80100; batch: 6620314) and 2% of PS solution. Viable cells are counted in a Neubauer cytometer using the trypan blue exclusion test. The cells are seeded at a density of 70 000 cells/well in 96 well-plates (wells are pre-coated with poly-L-lysine (Greiner)) and are cultured at 37° C. in a humidified air (95%)/CO2 (5%) atmosphere. Half of the medium are changed every 2 days with fresh medium. In these conditions, after 5 days of culture, astrocytes are present in the culture and release growth factor allowing neurons differentiation. Five to six percents of the neuronal cell population are dopaminergic neurons.
Briefly, on day 5 of culture, the medium was removed and fresh medium was added, without or with kinetin (Sigma ref 48130) at 100 μM, 50 μM, 25 μM and with and without BDNF 10 ng/ml for 2 days, 6 days or 10 days. […]

Turning to `c1coc(CC2CNc3ncnc4ncn2c34)c1` (stereo not shown) [MTK- 48, 7-(furan-2-ylmethyl)-8,9-dihydro-7H-imidazo[4,5,1-de]pteridine], in the data set with SH-SYSY cells, the “Run1 Compound (avg as % kinetin)” value is 92%, the “Run2 Compound (avg as % kinetin)” value was 122% and the “Run3 Compound (avg as % kinetin)” value was determined as 95%.

Regarding `c1coc(CNc2ccnc3[nH]ncc23)c1` [MTK- 59, N-(furan-2-ylmethyl)-1H-pyrazolo[3,4-b]pyridin-4-amine], in the data set with SH-SYSY cells, the “Run1 Compound (avg as % kinetin)” value amounted to 72% and the “Run2 Compound (avg as % kinetin)” value turned out to be 108%.

Take `c1coc(CNc2ccnc3[nH]cnc23)c1` [MTK- 58, N-(furan-2-ylmethyl)-3H-imidazo[4,5-b]pyridin-7-amine]: in the data set with SH-SYSY cells, the “Run1 Compound (avg as % kinetin)” value is listed as 94% and the “Run2 Compound (avg as % kinetin)” value is 108%.

As to `Nc1ncnc2nc[nH]c12` [Adenine], the “mean time necessary for recovery (to right itself) after 10 seconds vortexing” value in the data set with ND2 mutant flies is given as “approximately 9 seconds”.

Consider `c1coc(CNc2nccc3[nH]ncc23)c1` [MTK- 62, N-(furan-2-ylmethyl)-1H-pyrazolo[4,3-c]pyridin-4-amine], for which, in the data set on SH-SYSY cells, the “Run1 Compound (avg as % kinetin)” value came out at 88% and the “Run2 Compound (avg as % kinetin)” value was 132%.

As for `Cc1nc2c(NCc3ccco3)ncnc2[nH]1` [MTK- 64, N-(furan-2-ylmethyl)-8-methyl-9H-purin-6-amine], in the data set on SH-SYSY cells, the “Run1 Compound (avg as % kinetin)” value is listed as 79%, the “Run2 Compound (avg as % kinetin)” value is listed as 120% and the “Run3 Compound (avg as % kinetin)” value stood at 93%.

In the case of `c1coc(CNc2ncnc3nc[nH]c23)c1` [Kinetin, kinetin], the “mean time necessary for recovery (to right itself) after 10 seconds vortexing” value in the data set with ND2 mutant flies was 0.5 s. Moreover, the “TH neuron survival against MPP+, % of cell survival” value came to 76% in data set [1] (Kinetin 25 μM pre-incubated 10 days) and 84% in data set [1] (Kinetin 5004 pre-incubated 10 days). Besides, the results for the “dopaminergic (TH positive) neuron survival, percentage of control” value in data set [1] (Kinetin 100 μM pre-incubated 2 days) and in data set [1] (Kinetin 100 μM pre-incubated 6 days) were 70% and 72%, respectively. For the same molecule, in data set [1] (Kinetin 100 μM pre-incubated 10 days), the “toxicity on dopaminergic neurons on long incubation” value is reported as “toxic”.

`Nc1nc(NCc2ccco2)c2nc[nH]c2n1` [MTK- 68, N-6-(furan-2-ylmethyl)-9H-purine-2,6-diamine]: in the data set with SH-SYSY cells, the “Run1 Compound (avg as % kinetin)” value came to 95%.

As to `c1coc(CNc2ncnc3[nH]ncc23)c1` [MTK- 51, N-(furan-2-ylmethyl)-1H-pyrazolo [3,4-d]pyrimidin-4-amine], in the data set with SH-SYSY cells, the “Run1 Compound (avg as % kinetin)” value was 80% and the “Run2 Compound (avg as % kinetin)” value came to 92%.

With `C[n+]1ccc(-c2ccccc2)cc1` [MPP^+, 1-methyl-4-phenylpyridinium], the figures for the “decrease of TH positive neurons” value in data set [1] (2 days pre-incubation series (FIG. 1)), in data set [1] (6 days pre-incubation series (FIG. 2)) and in data set [1] (10 days pre-incubation series (FIG. 3)) were around 50%, around 54% and around 47%, respectively.

B1: BDNF: brain derived neurotrophic factor, used at 10 ng/ml as positive control (protein, UniProt P23560 19-247, looked up)
Neurotrophic factor BDNF …: APMKEANIRGQGGLAYPGVRTHGTLESVNGPKAGSRGLTSLADTFEHVIEELLDEDQKVRPNEENNKDADLYTSRVMLSSQVPLEPPLLFLLEEYKNYLDAANMSMRVRRHSDPARRGELSVCDSISEWVTAADKKTAVDMSGGTVTVLEKVPVSKGQLKQYFYETKCNPMGYTKEGCRGIDKRHWNSQCRTTQSYVRALTMDSKKRIGWRFIRIDTSCVCTLTIKRGR
With B1, the “dopaminergic (TH positive) neuron survival, percentage of control” value in data set [1] (BDNF 10 ng/mL, 2 days pre-incubation series) came to 87%; in data set [1] (BDNF 10 ng/mL, 6 days pre-incubation series) it was 84%; in data set [1] (BDNF 10 ng/mL, 10 days pre-incubation series), 91%.
